Results reported in patent publication US9931324B2, “Indolizine derivatives and their use in neurodegenerative diseases” (Merck Patent GmbH, priority 2014, dated 2018).

Key:
[1] = biological target: T1, P2X7 (Homo sapiens, UniProt Q99572); assay: Pore permeation assay (YO PRO dye uptake, BzATP-induced); type: cell-based; design: expressed in transfected cells; host or cells: HEK293; conditions: HEK293 transfected with human P2X7 receptor, BzATP 10 uM, read-out: hP2X7 IC50
T1 sequence (Q99572 1-595): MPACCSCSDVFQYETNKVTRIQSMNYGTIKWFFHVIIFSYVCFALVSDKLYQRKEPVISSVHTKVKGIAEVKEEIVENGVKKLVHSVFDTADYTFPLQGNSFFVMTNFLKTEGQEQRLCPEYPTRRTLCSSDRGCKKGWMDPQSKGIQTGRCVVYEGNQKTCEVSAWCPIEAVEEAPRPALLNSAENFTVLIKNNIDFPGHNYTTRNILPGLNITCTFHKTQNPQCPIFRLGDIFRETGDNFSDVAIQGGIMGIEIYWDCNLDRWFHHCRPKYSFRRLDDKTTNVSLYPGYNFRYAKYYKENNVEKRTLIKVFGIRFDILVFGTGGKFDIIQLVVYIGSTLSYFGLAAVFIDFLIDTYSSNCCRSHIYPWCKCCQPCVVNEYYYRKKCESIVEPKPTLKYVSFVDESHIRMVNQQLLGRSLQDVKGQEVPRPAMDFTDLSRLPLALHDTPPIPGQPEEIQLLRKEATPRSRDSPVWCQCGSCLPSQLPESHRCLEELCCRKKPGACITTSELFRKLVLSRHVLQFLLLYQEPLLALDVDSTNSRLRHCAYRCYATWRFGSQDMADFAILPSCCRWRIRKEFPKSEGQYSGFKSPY
Protocol: Agonist-induced pore formation was determined by measuring cellular uptake of YO PRO fluorescence dye in HEK293 transfected with human P2X7 receptor. A HEK293 cell over expressing human P2X7 was harvested using HQTase reagent to detach the cells from T75 cm flask. The harvested cells are centrifuged @1200 rpm for 5 min at room temperature. The viability of cells was determined by Trypan blue dye and the cells are plated @10,000 cell/well in 50 ul volume in a 384W BD Poly lysine coated plate and incubated overnight at 37 C. After overnight incubation, the culture medium was replaced with 35 ul/well assay buffer (5 mM KCl, 0.1 mM CaCl2, 5 mM Glucose, 10 mM HEPES buffer pH7.4 containing 125 mM NaCl. The serial dilution of compounds was performed using Bravo liquid handling instrument and the compounds were added using Bravo to the cell assay plate starting at 2.5 uM with three dilutions for 10 points. The positive control inhibitor compound was added to column 23. The plate was shaken slowly on a plate shaker for 10 seconds. The cells were incubated with the compound for 20 minutes at room temperature. After the incubation period, YO PRO dye (1 uM) along with BzATP (10 uM) were added to cells at 10 ul/well. The plate was centrifuged at 1000 rpm for 5 seconds and incubated at room temperature for 30 minutes. The uptake of YO PRO dye into the cells was measured using Envision Fluorescence plate reader instrument (Perkin Elmer).

[2] = biological target: T1, P2X7; assay: IL-1β release assay in THP-1 cells (sandwich ELISA, BzATP-stimulated); type: cell-based; design: endogenous in cells; host or cells: THP-1 cells (PMA-differentiated, LPS-primed); conditions: LPS primed, 0.8 mM BzATP, mature IL-1β release, read-out: hTHP-1/IL-ib IC50
Protocol: IL-1β release assay: The activation of P2X7 by ATP leads to a fast transient activation of cells resulting in influx of Ca^2+ followed by conversion of pro-IL-1β to active IL-1β. The functional activity of P2X7 compounds was measured by the release of mature IL-1β in the culture medium of THP-1 cells, detected by sandwich ELISA. Cells were maintained in complete growth medium (RPMI 1640+10% HI-FCS+2 mM L-glutamine+1× PS). […] THP-1 cells were harvested from the flask in 50 ml by centrifugation for 3 min at 100 g. The cells were resuspended to 2×10^5 cells/ml in medium supplemented with 0.5 μM PMA and incubated. The cells were washed and resuspended to 1.5×10^5 cells/ml in medium complemented with 10 ng/ml LPS, and the cells were primed for 4 h at 37° C., 5% CO2. After addition of 20 μL of prediluted test compounds, blank, standard and control reagents, cells were incubated for a further 20 min at 37° C. and stimulated with 0.8 mM BzATP for 30 minutes. The cells were centrifuged, supernatant was collected and the presence of mature IL-1β was detected using Dual human IL-1b kit following manufacturer's instruction. The tetrahydrobenzodiazepine analogs effectively modulated the activity of P2X7 in the cells as measured by the levels of pro-inflammatory cytokine IL-1β, which is released by the activation of P2X7 receptor.

Compound | IC50 [1] [nM] | IC50 [2] [nM]
O=C(NCC1CCC(F)(F)CC1)c1cc(C2CCC2)n2cccc(Cl)c12 [Compound 5, 8-chloro-3-cyclobutyl-N-((4,4-difluorocyclohexyl)methyl)indolizine-1-carboxamide] | 10 to 100 | 101 to 500
O=C(NCC1CCCCCC1)c1cc(CCO)n2cccc(Cl)c12 [Compound 6, 8-chloro-N-(cycloheptylmethyl)-3-(2-hydroxyethyl)indolizine-1-Carboxamide] | 10 to 100 | 10 to 100
COCCc1cc(C(=O)NCC2CCCCC2)c2c(Cl)cccn12 [Compound 8, 8-chloro-N-(cyclohexylmethyl)-3-(2-methoxyethyl)-indolizine-1-carboxamide] | 10 to 100 | 101 to 500
O=C(NCC1CCC(F)(F)CC1)c1cc(I)n2cccc(Cl)c12 [Compound 9] | 101 to 500 | 101 to 500
COCCc1cc(C(=O)NCC2(O)CCCC(C)(C)C2)c2c(Cl)cccn12 (stereo not shown) [Compound 10, 8-chloro-N-((1-hydroxy-3,3-dimethylcyclohexyl)methyl)-3-(2-methoxyethyl) indolizine-1-carboxamide] | 10 to 100 | 10 to 100
COCCc1cc(C(=O)NCC2CCC(F)(F)C(C)C2)c2c(Cl)cccn12 (stereo not shown) [Compound 11, 8-chloro-N-((4,4-difluoro-3-methylcyclohexyl)methyl)-3-(2-methoxyethyl) indolizine-1-carboxamide] | < 10 | 10 to 100
O=C(NCC1(O)CCC(F)(F)CC1)c1cc(C2CCC2)n2cccc(Cl)c12 [Compound 12, 8-chloro-3-cyclobutyl-N-((4,4-difluoro-1-hydroxycyclohexyl)methyl) indolizine-1-carboxamide] | 10 to 100 | 101 to 500
COCCc1cc(C(=O)NCC2CC(C)CC(F)(F)C2)c2c(Cl)cccn12 (stereo not shown) [Compound 13, 8-chloro-N-((3,3-difluoro-5-methylcyclohexyl)methyl)-3-(2-methoxyethyl)indolizine-1-carboxamide] | 10 to 100 | 10 to 100
O=C(NCC1CCC(F)(F)CC1)c1cc(C2=COCC2)n2cccc(Cl)c12 [Compound 14, 8-chloro-N-((4,4-difluorocyclohexyl)methyl)-3-(4,5-dihydrofuran-3-yl)indolizine-1-carboxamide] | 10 to 100 | 10 to 100
O=C(NCC1CCCCC1)c1cc(CCO)n2cccc(Cl)c12 [Compound 15, 8-chloro-N-(cyclohexylmethyl)-3-(2-hydroxyethyl)indolizine-1-carboxamide] | 101 to 500 | 101 to 500
COCCc1cc(C(=O)NC[C@@]2(O)CCC[C@@H](C)C2)c2c(C)cccn12 [Compound 16, 3-(2-Methoxy-ethyl)-8-methyl-indolizine-1-carboxylic Acid ((1R,3R)-1-hydroxy-3-methylcyclohexylmethyl)-amide] | 10 to 100 | 101 to 500
O=C(NCC1CCCC(F)(F)C1)c1cc(C2CCCO2)n2cccc(Cl)c12 (stereo not shown) [Compound 17, 8-Chloro-3-(tetrahydro-furan-2-yl)-indolizine-1-carboxylic Acid (3,3-difluoro-cyclohexylmethyl)-amide] | < 10 | 10 to 100
COCCc1cc(C(=O)NC[C@@]2(O)CCC[C@@H](C)C2)c2c(Cl)cccn12 [Compound 18] | 10 to 100 | 10 to 100
O=C(NCC1CCC(F)(F)CC1)c1cc(C2=CCOC2)n2cccc(Cl)c12 [Compound 21, 8-chloro-N-((4,4-difluorocyclohexyl)methyl)-3-(2,5-dihydrofuran-3-yl) indolizine-1-carboxamide] | 101 to 500 | 101 to 500
COCCc1cc(C(=O)NC[C@@]2(O)CCC[C@@H](C)C2)c2c(C(F)(F)F)cccn12 [Compound 22, 3-(2-Methoxy-ethyl)-8-trifluoromethyl-indolizine-1-carboxylic Acid ((1R,3R)-1-hydroxy-3-methyl-cyclohexylmethyl)-amide] | 10 to 100 | 10 to 100
O=C(NCC1CCC(F)(F)CC1)c1cc(C2CCCO2)n2cccc(Cl)c12 (stereo not shown) [Compound 23, 8-Chloro-3-(tetrahydro-furan-2-yl)-indolizine-1-carboxylic Acid (4,4-difluoro-cyclohexyl methyl)-amide] | 10 to 100 | 10 to 100
COCCc1cc(C(=O)NCC2(O)CCCC3(CC3)C2)c2c(Cl)cccn12 (stereo not shown) [Compound 29, 8-chloro-N-((5-hydroxyspiro[2.5]octan-5-yl)methyl)-3-(2-methoxyethyl) indolizine-1-carboxamide] | 101 to 500 | 101 to 500
O=C(NCC1CCC(F)(F)CC1)c1cc(CC2CCOC2)n2cccc(Cl)c12 (stereo not shown) [Compound 30, 8-chloro-N-((4,4-difluorocyclo-hexyl)methyl)-3-((tetrahydrofuran-3-yl)methyl)indolizine-1-carboxamide] | 10 to 100 | 101 to 500
COCCc1cc(C(=O)NCC2CCCC(F)(F)C2)c2c(Cl)cccn12 (stereo not shown) [Compound 31, 8-chloro-N-((3,3-difluorocyclohexyl)methyl)-3-(2-methoxyethyl)indolizine-1-carboxamide] | 10 to 100 | 10 to 100
CC1CC(CNC(=O)c2cc(CCO)n3cccc(Cl)c23)CCC1(F)F (stereo not shown) [Compound 32, 8-chloro-N-((4,4-difluoro-3-methylcyclohexyl)methyl)-3-(2-hydroxyethyl) indolizine-1-carboxamide] | < 10 | 10 to 100
COCCc1cc(C(=O)NCC2(O)CCCCCC2)c2c(Cl)cccn12 [Compound 35, 8-chloro-N-((1-hydroxycycloheptyl)methyl)-3-(2-methoxyethyl)indolizine-1-carboxamide] | 10 to 100 | 10 to 100
CC1CC(CNC(=O)c2cc(CCO)n3cccc(Cl)c23)CC(F)(F)C1 (stereo not shown) [Compound 36, 8-chloro-N-((3,3-difluoro-5-methylcyclohexyl)methyl)-3-(2-hydroxyethyl)indolizine-1-carboxamide] | 10 to 100 | 10 to 100
COCCc1cc(C(=O)NCC2CCC(F)(F)CC2)c2c(Cl)cccn12 [Compound 37, 8-chloro-N-((4,4-difluorocyclohexyl)methyl)-3-(2-methoxyethyl) indolizine-1-carboxamide] | 10 to 100 | 10 to 100
O=C(NCC1CCCC(F)(F)C1)c1cc(C2CCOC2)n2cccc(Cl)c12 (stereo not shown) [Compound 39, 8-Chloro-3-(tetrahydro-furan-3-yl)-indolizine-1-carboxylic Acid (3,3-difluoro-cyclohexyl methyl)-amide] | 10 to 100 | 101 to 500
O=C(NCC1CCC(F)(F)CC1)c1cc(C2CCOC2)n2cccc(Cl)c12 (stereo not shown) [Compound 40, 8-chloro-N-((4,4-difluorocyclohexyl)methyl)-3-(tetrahydro-furan-3-yl)indolizine-1-carboxamide] | 10 to 100 | 10 to 100
CC1CC(O)(CNC(=O)c2cc(C3CCOCC3)n3cccc(Cl)c23)CCC1(F)F (stereo not shown) [Compound 41, 8-chloro-N-((4,4-difluoro-1-hydroxy-3-methylcyclohexyl)methyl)-3-(tetrahydro-2H-pyran-4-yl)indolizine-1-carboxamide] | 101 to 500 | 10 to 100
